Values quoted from earlier work, collected in article PMC11984905, “Chiral Switch of Gadopiclenol: New Standards in MRI Probes” (Advanced Science, 2025).
Where two headings read alike, the source gives them in different places. Marks after values point to notes of the source that are not given here.

What was measured:
[1] = 0.1 M KCl; cited from earlier work
[2] = pH 7.4, 0.15 M NaCl, 25 °C; cited from earlier work
[3] = set-up: method as in earlier work; conditions: stability constant of the Na+ complex; cited from earlier work
[4] = 25 °C, cited from earlier work
[5] = 0.1 M KCl; cited from earlier work; remark: listed apart in the source
[6] = cited from earlier work; for pGd: [Gd^3+]tot = 1 µM, [L]tot = 10 µM; for pGd / logK^c GdL: pH 7.4, calculated from literature constants
[7] = 0.1 M KCl; cited from earlier work; remark: listed apart in the source

## O=C(O)CN1CCN(CC(=O)O)CCN(CC(=O)O)CCN(CC(=O)O)CC1 [DOTA]
[1]
  logK ZnL: 18.7
  logKZnH2L: 3.96
  logKZnHL: 5.33
[2]
  k d at pH = 7.4: 7.3 × 10^−14 s^−1
[3]
  logKNa(L): 4.38
[4]; 0.1 M KCl
  logK1^H: 11.14
  logK2^H: 9.69
  logK3^H: 4.85
  logK4^H: 3.95
  ΣlogKi^H: 29.63
[4]; 0.1 M Me4NCl
  logK1^H: 11.45
  logK2^H: 9.64
  logK3^H: 4.60
  logK4^H: 4.11
  logK5^H: 2.29
  ΣlogKi^H: 32.09
[4]; 0.15 M NaCl
  logK1^H: 9.14
  logK2^H: 9.21
  logK3^H: 4.48
  logK4^H: 4.03
  logK5^H: 1.99^d)
  ΣlogKi^H: 28.85
[5]
  logK CuL: 22.72
  logKCuH2L: 3.92
  logKCuHL: 4.45
[6]; 0.1 M KCl
  logKGdHL: 1.15
[6]; 0.1 M Me4NCl, 25 °C
  logK GdL: 25.6
  pGd: 20.24
  logK^c GdL: 19.29
[6]; 0.1 M NaCl, 25 °C
  logK GdL: 24.7
  pGd: 22.09
  logK^c GdL: 21.14
[6]; diprotonated out-of-cage intermediate, 0.15 M NaCl, 25 °C
  *logKGd(H2L): 6.07^f)
[7]
  logK CaL: 16.37
  logKCaHL: 3.60
